Data taken from article PMC5361737, “Potent and Selective KDM5 Inhibitor Stops Cellular Demethylation of H3K4me3 at Transcription Start Sites and Proliferation of MM1S Myeloma Cells” (Cell Chemical Biology, 2017).
“Also recorded” adds a separate entry of the source.

Tests used:
5-HT1B = 5-HT1B (Rattus norvegicus, UniProt P28564); assay: Cerep Express Panel, antagonist radioligand; format: binding; settings: read-out: % Inhibition of reference (10 µM)
Y2 (h) = Y2 (h) (Homo sapiens, UniProt P49146); assay: Cerep Express Panel, agonist radioligand; format: binding; settings: read-out: % Inhibition of reference (10 µM)
alpha 1 (non-selective) = assay: Cerep Express Panel, antagonist radioligand; format: binding
NK2 (h) = NK2 (h) (Homo sapiens, UniProt P21452); assay: Cerep Express Panel, agonist radioligand; format: binding; settings: read-out: % Inhibition of reference (10 µM)
M3 (h) = M3 (h) (Homo sapiens, UniProt P20309); assay: Cerep Express Panel, antagonist radioligand; format: binding; settings: read-out: % Inhibition of reference (10 µM)
AT1 (h) = AT1 (h) (Homo sapiens, UniProt P30556); assay: Cerep Express Panel, antagonist radioligand; format: binding; settings: read-out: % Inhibition of reference (10 µM)
[1] = tested on: panel of 55 receptors and enzymes; assay: CEREP express panel of 55 common off-targets; format: binding; settings: 10 µM
KDM3B = KDM3B (Homo sapiens, UniProt Q7LBC6); assay: 2-Oxoglutarate oxygenase assay panel, AlphaScreen assay; format: biochemical; settings: ± SEM
5-HT transporter (h) = biological target: T1, 5-HT transporter (h) (Homo sapiens, UniProt P31645); assay: Cerep Express Panel, antagonist radioligand; format: binding; settings: read-out: % Inhibition of reference (10 µM)
T1 construct: CEREP

KDM2A = biological target: T2, KDM2A (Homo sapiens, UniProt Q9Y2K7); assay: 2-Oxoglutarate oxygenase assay panel, AlphaScreen assay; format: biochemical; settings: refers to Table S1
T2 sequence (Q9Y2K7 1-1162): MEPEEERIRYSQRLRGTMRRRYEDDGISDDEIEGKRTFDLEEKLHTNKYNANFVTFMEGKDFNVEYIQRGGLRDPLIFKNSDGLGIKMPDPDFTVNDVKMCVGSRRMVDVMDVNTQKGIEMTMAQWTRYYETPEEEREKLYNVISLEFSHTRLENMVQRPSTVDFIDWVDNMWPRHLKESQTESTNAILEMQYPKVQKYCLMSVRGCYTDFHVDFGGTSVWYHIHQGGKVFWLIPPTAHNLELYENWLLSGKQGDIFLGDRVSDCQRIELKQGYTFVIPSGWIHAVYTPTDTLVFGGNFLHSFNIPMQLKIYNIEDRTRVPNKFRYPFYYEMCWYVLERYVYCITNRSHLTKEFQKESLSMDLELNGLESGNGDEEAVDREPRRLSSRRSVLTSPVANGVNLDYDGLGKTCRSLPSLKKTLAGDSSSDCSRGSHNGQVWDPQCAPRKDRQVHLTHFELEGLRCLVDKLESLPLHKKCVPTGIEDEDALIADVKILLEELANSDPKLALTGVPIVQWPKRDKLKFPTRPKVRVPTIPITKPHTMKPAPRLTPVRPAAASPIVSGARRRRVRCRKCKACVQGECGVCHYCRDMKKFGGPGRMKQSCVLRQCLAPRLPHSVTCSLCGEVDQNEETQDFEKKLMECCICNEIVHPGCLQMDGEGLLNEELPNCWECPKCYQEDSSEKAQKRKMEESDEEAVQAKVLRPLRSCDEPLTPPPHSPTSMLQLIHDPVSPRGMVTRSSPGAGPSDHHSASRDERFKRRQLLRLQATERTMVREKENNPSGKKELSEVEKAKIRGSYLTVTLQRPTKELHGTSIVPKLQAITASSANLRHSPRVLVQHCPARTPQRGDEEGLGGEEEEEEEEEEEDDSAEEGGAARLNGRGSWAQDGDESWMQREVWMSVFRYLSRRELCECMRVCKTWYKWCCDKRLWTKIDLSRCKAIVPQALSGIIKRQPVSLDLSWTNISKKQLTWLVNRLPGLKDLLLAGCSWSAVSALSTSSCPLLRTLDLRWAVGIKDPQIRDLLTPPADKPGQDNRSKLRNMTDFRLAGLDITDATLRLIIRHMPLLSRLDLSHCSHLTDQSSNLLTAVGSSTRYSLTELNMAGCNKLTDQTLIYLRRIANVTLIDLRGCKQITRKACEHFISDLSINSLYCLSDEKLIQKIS

KDM4C = biological target: T3, KDM4C (Homo sapiens, UniProt Q9H3R0); assay: as above; format: biochemical; settings: AlphaScreen assay; ± SEM
T3 sequence (Q9H3R0 1-1056): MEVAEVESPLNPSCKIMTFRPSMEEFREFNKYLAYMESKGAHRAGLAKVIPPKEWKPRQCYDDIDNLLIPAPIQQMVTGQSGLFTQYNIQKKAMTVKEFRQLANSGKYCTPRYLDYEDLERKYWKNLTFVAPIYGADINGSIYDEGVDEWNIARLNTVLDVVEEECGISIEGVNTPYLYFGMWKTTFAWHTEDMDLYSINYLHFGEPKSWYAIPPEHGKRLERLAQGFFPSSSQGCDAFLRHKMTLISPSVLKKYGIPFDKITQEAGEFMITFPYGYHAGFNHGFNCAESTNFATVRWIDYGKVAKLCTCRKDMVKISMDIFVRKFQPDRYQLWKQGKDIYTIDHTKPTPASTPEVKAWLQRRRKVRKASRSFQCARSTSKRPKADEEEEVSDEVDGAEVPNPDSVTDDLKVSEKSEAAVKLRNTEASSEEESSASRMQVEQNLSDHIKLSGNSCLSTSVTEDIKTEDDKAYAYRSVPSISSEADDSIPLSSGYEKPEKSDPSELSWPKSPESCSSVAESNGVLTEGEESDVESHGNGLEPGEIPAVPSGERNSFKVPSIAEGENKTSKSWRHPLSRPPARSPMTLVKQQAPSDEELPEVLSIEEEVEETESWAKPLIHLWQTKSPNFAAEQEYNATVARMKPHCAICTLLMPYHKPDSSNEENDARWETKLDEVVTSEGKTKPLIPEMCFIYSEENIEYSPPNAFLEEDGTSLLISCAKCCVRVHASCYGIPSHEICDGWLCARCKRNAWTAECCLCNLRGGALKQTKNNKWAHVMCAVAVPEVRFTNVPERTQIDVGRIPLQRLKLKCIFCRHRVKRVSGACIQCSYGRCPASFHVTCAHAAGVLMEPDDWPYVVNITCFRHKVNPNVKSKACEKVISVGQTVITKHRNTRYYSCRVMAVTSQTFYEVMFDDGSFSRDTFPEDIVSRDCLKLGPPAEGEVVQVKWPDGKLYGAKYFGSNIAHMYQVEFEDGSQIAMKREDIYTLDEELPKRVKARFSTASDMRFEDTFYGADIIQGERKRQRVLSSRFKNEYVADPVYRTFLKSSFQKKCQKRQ

V1a (h) = V1a (h) (Homo sapiens, UniProt P37288); assay: Cerep Express Panel, agonist radioligand; format: binding; settings: read-out: % Inhibition of reference (10 µM)
V1a (h), sequence (P37288 whole entry): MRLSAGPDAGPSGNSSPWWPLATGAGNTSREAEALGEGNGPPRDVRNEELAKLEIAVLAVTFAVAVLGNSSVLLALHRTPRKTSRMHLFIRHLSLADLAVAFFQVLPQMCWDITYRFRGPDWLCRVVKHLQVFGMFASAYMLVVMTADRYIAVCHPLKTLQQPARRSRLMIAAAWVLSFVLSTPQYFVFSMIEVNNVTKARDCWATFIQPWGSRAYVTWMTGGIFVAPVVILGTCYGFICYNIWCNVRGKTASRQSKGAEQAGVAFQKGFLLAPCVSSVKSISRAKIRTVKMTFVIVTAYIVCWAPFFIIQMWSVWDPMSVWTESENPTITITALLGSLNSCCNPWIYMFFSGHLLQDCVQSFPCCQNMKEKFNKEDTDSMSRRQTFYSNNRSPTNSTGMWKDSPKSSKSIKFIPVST

T1 sequence (P31645 whole entry): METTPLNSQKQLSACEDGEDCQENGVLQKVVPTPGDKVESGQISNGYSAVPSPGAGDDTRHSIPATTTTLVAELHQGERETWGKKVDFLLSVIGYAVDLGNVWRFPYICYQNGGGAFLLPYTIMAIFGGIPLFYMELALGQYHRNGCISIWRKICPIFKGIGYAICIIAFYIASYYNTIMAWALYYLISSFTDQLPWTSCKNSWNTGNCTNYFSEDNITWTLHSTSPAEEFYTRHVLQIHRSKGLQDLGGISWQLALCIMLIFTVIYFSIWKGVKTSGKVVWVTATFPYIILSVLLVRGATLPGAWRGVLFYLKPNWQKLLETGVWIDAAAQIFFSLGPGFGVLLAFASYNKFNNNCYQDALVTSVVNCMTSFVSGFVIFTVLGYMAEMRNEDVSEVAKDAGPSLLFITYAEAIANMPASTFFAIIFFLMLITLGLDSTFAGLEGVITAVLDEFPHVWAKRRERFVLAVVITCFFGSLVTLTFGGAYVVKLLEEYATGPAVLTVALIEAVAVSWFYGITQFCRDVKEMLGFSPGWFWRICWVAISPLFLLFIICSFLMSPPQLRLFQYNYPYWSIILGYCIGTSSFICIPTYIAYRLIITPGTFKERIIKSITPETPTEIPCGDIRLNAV
NK2 (h), sequence (P21452 whole entry): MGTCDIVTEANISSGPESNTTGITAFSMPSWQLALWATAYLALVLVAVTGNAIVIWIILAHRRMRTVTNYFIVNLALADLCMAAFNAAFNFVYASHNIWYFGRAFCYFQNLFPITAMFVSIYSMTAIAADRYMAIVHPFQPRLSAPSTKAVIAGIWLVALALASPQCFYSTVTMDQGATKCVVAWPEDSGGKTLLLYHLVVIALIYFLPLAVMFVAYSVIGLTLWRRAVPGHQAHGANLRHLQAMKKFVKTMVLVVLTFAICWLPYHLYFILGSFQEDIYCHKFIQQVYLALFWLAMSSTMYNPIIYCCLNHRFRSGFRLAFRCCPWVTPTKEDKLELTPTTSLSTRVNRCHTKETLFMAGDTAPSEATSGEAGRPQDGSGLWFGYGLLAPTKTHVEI
M3 (h), sequence (P20309 whole entry): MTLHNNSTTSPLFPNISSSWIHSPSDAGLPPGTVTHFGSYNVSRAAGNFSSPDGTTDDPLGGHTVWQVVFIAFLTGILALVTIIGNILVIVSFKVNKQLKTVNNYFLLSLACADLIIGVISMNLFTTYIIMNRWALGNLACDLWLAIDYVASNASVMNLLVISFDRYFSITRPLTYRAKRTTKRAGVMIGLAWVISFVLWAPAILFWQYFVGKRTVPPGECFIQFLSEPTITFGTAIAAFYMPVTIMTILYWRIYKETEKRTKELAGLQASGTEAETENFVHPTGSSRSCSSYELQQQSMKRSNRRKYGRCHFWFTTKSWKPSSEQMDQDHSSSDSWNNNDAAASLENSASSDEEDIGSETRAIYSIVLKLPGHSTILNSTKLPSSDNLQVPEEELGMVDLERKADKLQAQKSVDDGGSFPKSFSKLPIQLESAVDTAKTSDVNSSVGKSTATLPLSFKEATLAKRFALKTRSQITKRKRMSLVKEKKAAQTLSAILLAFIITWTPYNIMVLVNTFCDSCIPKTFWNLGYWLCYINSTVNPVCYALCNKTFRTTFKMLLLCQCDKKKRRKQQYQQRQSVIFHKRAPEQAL
Y2 (h), sequence (P49146 whole entry): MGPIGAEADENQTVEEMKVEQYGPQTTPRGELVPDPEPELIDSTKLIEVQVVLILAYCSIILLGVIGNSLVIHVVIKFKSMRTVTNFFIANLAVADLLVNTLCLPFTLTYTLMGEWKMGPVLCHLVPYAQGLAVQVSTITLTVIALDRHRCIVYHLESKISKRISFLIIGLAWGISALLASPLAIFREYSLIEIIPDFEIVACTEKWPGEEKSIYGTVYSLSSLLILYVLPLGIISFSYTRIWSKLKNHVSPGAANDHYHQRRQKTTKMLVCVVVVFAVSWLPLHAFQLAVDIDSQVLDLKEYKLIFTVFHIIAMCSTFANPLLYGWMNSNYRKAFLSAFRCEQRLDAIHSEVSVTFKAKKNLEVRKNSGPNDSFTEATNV
5-HT1B, sequence (P28564 whole entry): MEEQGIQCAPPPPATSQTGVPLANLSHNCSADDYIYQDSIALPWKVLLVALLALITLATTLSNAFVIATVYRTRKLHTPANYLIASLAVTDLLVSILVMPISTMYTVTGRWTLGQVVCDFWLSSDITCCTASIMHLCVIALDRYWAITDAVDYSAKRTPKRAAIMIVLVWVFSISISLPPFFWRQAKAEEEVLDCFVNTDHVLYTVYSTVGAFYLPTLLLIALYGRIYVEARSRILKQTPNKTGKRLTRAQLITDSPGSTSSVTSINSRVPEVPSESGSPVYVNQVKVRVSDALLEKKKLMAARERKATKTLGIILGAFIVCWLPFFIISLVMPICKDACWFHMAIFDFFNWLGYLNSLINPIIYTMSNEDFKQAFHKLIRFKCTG
KDM3B, sequence (Q7LBC6 whole entry): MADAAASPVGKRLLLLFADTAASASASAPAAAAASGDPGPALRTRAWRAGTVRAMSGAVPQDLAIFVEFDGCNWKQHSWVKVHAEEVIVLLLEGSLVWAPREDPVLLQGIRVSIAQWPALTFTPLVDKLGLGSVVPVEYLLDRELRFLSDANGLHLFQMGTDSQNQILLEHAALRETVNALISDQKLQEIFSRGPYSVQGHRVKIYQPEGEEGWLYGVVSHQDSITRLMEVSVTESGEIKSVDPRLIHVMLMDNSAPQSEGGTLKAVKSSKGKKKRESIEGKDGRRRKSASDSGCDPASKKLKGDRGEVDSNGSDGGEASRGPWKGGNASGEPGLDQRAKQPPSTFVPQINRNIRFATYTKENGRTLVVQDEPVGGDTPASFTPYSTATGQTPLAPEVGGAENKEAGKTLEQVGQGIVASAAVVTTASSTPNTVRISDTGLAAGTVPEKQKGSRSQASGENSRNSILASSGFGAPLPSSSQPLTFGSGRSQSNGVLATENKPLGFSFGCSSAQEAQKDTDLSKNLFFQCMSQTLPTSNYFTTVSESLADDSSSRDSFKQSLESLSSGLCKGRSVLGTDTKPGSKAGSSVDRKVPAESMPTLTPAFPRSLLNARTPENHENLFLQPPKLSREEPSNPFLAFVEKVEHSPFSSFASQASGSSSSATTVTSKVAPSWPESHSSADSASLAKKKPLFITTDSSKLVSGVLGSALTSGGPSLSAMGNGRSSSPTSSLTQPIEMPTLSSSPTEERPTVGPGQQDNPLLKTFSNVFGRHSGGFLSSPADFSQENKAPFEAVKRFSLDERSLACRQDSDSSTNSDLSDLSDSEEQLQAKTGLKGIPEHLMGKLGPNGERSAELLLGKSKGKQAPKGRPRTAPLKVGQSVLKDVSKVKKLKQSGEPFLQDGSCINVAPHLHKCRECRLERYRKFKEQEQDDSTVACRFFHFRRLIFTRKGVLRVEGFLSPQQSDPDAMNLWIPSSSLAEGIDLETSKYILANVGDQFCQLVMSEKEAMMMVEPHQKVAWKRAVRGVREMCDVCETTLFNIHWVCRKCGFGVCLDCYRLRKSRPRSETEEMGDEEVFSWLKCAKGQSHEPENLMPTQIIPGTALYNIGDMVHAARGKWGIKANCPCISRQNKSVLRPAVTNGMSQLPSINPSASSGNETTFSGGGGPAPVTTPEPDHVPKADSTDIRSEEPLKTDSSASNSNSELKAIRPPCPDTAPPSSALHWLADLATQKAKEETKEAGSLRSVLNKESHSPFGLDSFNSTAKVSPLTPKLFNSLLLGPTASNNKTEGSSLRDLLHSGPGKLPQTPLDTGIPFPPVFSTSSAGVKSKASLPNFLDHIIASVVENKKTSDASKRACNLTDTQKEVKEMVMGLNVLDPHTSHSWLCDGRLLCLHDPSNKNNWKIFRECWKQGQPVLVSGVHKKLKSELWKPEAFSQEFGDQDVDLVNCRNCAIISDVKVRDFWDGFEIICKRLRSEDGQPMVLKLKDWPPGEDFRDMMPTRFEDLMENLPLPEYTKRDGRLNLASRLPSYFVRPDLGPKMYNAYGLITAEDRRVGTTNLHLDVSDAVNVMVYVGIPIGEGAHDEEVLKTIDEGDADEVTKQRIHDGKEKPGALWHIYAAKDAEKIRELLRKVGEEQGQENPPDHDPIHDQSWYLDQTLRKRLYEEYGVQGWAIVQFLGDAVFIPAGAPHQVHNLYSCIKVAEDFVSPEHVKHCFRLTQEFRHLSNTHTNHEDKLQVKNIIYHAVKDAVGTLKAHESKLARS
AT1 (h), sequence (P30556 whole entry): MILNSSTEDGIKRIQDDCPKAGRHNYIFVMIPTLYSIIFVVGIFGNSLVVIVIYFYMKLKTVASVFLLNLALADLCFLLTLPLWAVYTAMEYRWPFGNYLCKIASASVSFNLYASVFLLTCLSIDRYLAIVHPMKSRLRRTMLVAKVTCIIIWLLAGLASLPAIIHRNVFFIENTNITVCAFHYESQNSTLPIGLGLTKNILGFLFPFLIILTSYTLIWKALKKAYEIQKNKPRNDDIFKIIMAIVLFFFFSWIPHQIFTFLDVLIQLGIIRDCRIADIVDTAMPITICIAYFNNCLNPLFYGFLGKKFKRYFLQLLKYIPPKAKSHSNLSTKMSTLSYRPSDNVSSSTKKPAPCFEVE

CCN(CCN(C)C)C(=O)CNCc1cc(C(N)=O)ccn1 [KDOAM-25]
inhibition at 10 µM (5-HT1B): -1% | inhibition at 10 µM (Y2 (h)): -1% | % Inhibition of reference (10 µM) (alpha 1 (non-selective)): -15% | inhibition at 10 µM (NK2 (h)): 3% | inhibition at 10 µM (M3 (h)): 5% | inhibition at 10 µM (AT1 (h)): -7% | off-target inhibition in CEREP express panel, in words [1]: no inhibition; also recorded: no off-target activity; also recorded: devoid of off-target activity | pIC50 KDM3 B (KDM3B): 4.1 ± 0.65 | inhibition at 10 µM (5-HT transporter (h)): -2% | KDM2A IC50 (KDM2A): 4.4 µM | pIC50 KDM4 C (KDM4C): 5.3 ± 0.28 | inhibition at 10 µM (V1a (h)): -4%
